Laboratory results from patent publication US20070249720A1, “Thiourea Derivative-Containing Pharmaceutical Composition Having Improved Solubility and Bioavailability” (priority 2003, published 2007).
Values after ≈ are worked out from the molar mass of the structure shown.

What was measured:
[1] = Solubility of Compound 1 in aqueous 2-hydroxypropyl-β-cyclodextrin solutions (HPLC); type: physicochemical; conditions: aqueous 2-hydroxypropyl-β-cyclodextrin solution, thermodynamic from solid, stirred 72 hours
Protocol: 0.4 g of 1-(4-t-butylbenzyl)-3-(3-fluoro-4-methanesulfonylaminobenzyl)thiourea (Compound 1) was added to each 10 ml of 0, 1.5, 3.5, 7.0, 14.0 and 28.0 w/v % aqueous solutions of 2-hydroxypropyl-β-cyclodextrin. The resulting mixture was stirred for 72 hours, filtered through a 0.2 micrometer filter paper. The concentration of Compound 1 in the filtrate was determined by high performance liquid chromatography (HPLC) and the solubility of Compound 1 depending on the concentration of 2-hydroxypropyl-β-cyclodextrin is presented in Table 1.

[2] = Solubility of Compound 1 in 2-hydroxypropyl-β-cyclodextrin solution in glycine buffer (pH 10.5) (HPLC); type: physicochemical; conditions: thermodynamic from solid, stirred 72 hours
Protocol: 0.4 g of 1-(4-t-butylbenzyl)-3-(3-fluoro-4-methanesulfonylaminobenzyl)thiourea (Compound 1) was added to each 10 ml of 0, 1.5, 3.5, 7.0, 14.0 and 28.0 w/v % 2-hydroxypropyl-β-cyclodextrin solution in glycine buffer (pH 10.5). The resulting mixture was stirred for 72 hours, filtered through a 0.2 micrometer filter paper.
The concentration of Compound 1 in the filtrate was determined by high performance liquid chromatography (HPLC) and the solubility of Compound 1 depending on the concentration of 2-hylroxypropyl-β-cyclodextrin is presented in Table 2.

[3] = Solubility of Compound 1 in 95% ethanol solution containing 2-hydroxypropyl-β-cyclodextrin (HPLC); type: physicochemical; conditions: organic solvent or mixture, thermodynamic from solid, stirred 72 hours
Protocol: 5 g of 1-(4-t-butylbenzyl)-3-(3-fluoro-4-methanesulfonylaminobenzyl)thiourea (Compound 1) was added to 100 ml of 95% ethanol solution containing 0, 1.0, 2.0, 5.0, 10.0 or 20.0 w/v % of 2-hylroxypropyl-β-cyclodextrin, and the mixture was stirred for 72 hours and then filtered through a 0.2 micrometer filter paper. The concentration of Compound 1 in the filtrate was determined by high performance liquid chromatography (HPLC) and the solubility of Compound 1 depending on the concentration of 2-hydroxypropyl-β-cyclodextrin is presented in Table 4.

[4] = Comparative dissolution test (Paddle method, Korean pharmacopoeia); type: physicochemical; conditions: water as release solvent, 37° C., 50 rpm, FIG. 1
Protocol: 1-(4-t-butylbenzyl)-3-(3-fluoro-4-methanesulfonylaminobenzyl)thiourea (Compound 1) and the tablet prepared in Formulation Example 2 were subjected to test in accordance with dissolution test method II (Paddle method) described in Korean pharmacopoeia using water as a release solvent.
3 ml samples were taken at a given time interval under the condition of 37° C. and 50 rpm, and filtered through a 0.45 micrometer filter. The concentration of Compound 1 in each sample was determined by HPLC.

[5] = Test for pharmacokinetics after oral administration to rats; type: in vivo; conditions: orally administered, 10 mg/kg
Excerpt: 1-(4-t-Butylbenzyl)-3-(3-fluoro-4-methanesulfonylaminobenzyl)thiourea (Compound 1) and the liquid formulation prepared in Formulation Example 3 were each orally administered to rats, and the changes in the plasma drug concentration were monitored according to a set time schedule. Each experimental animal group consisted of four male rats. After the rats were anesthetized with ether and operated for inserting a PE-50 polyethylene tube into the femoral artery, the suspension of Compound 1 in 0.5% sodium carboxymethylcellulose solution and the liquid formulation of Formulation Example 3 were each orally administered to the rats. At 15, 30, 60, 120, 210, 300 and 480 minutes after the administration, 150 micro liter blood samples were taken from the rats. Each blood sample was centrifuged to separate plasma, which was then subjected to HPLC to determine the concentration of Compound 1 in plasma.

solubility at 72 h ([1]; aqueous with cosolvent or surfactant or cyclodextrin, 1.5 w/v % 2-hydroxypropyl-β-cyclodextrin): 0.4 mg/mL (≈ 0.944 mM)
solubility at 72 h ([1]; aqueous with cosolvent or surfactant or cyclodextrin, 3.5 w/v % 2-hydroxypropyl-β-cyclodextrin): 1.04 mg/mL (≈ 2.46 mM)
solubility at 72 h ([1]; aqueous with cosolvent or surfactant or cyclodextrin, 7.0 w/v % 2-hydroxypropyl-β-cyclodextrin): 4.18 mg/mL (≈ 9.87 mM)
solubility at 72 h ([1]; aqueous with cosolvent or surfactant or cyclodextrin, 14.0 w/v % 2-hydroxypropyl-β-cyclodextrin): 12.2 mg/mL (≈ 28.9 mM)
solubility at 72 h ([1]; aqueous with cosolvent or surfactant or cyclodextrin, 28.0 w/v % 2-hydroxypropyl-β-cyclodextrin): 29 mg/mL (≈ 68.4 mM)
solubility at 72 h ([1]; water, 0 w/v % 2-hydroxypropyl-β-cyclodextrin): 0.01 mg/mL (≈ 0.0236 mM)
solubility at 72 h ([2]; pH 10.5, aqueous buffer, 0 w/v % 2-hydroxypropyl-β-cyclodextrin): 0.05 mg/mL (≈ 0.118 mM)
solubility at 72 h ([2]; pH 10.5, aqueous with cosolvent or surfactant or cyclodextrin, 1.5 w/v % 2-hydroxypropyl-β-cyclodextrin): 2.7 mg/mL (≈ 6.37 mM)
solubility at 72 h ([2]; pH 10.5, aqueous with cosolvent or surfactant or cyclodextrin, 3.5 w/v % 2-hydroxypropyl-β-cyclodextrin): 4.8 mg/mL (≈ 11.3 mM)
solubility at 72 h ([2]; pH 10.5, aqueous with cosolvent or surfactant or cyclodextrin, 7.0 w/v % 2-hydroxypropyl-β-cyclodextrin): 9.62 mg/mL (≈ 22.7 mM)
solubility at 72 h ([2]; pH 10.5, aqueous with cosolvent or surfactant or cyclodextrin, 14.0 w/v % 2-hydroxypropyl-β-cyclodextrin): 18 mg/mL (≈ 42.5 mM)
solubility at 72 h ([2]; pH 10.5, aqueous with cosolvent or surfactant or cyclodextrin, 28.0 w/v % 2-hydroxypropyl-β-cyclodextrin): 32.5 mg/mL (≈ 76.7 mM)
solubility at 72 h ([3]; 0 w/v % 2-hydroxypropyl-β-cyclodextrin): 19.7 mg/mL (≈ 46.6 mM)
solubility at 72 h ([3]; 1.0 w/v % 2-hydroxypropyl-β-cyclodextrin): 21.2 mg/mL (≈ 50.1 mM)
solubility at 72 h ([3]; 2.0 w/v % 2-hydroxypropyl-β-cyclodextrin): 22.7 mg/mL (≈ 53.5 mM)
solubility at 72 h ([3]; 5.0 w/v % 2-hydroxypropyl-β-cyclodextrin): 27.2 mg/mL (≈ 64.3 mM)
solubility at 72 h ([3]; 10.0 w/v % 2-hydroxypropyl-β-cyclodextrin): 34.1 mg/mL (≈ 80.6 mM)
solubility at 72 h ([3]; 20.0 w/v % 2-hydroxypropyl-β-cyclodextrin): 43.5 mg/mL (≈ 103 mM)
percent dissolution of drug [4]: insoluble in water
bioavailability ([5]; male, rat, plasma, po, read-out: BA: Bioavailability): 16.5%
Cmax ([5]; male, rat, plasma, po, read-out: Cmax: Maximum plasma concentration): 670 ng/mL
Tmax ([5]; male, rat, plasma, po, read-out: Tmax: Time at the maximum plasma concentration): 30 min
AUC: Area under the plasma concentration vs. time curve till 24 hours [5]: 2.79 microgram · h/ml
Compound: CC(C)(C)c1ccc(CNC(=S)NCc2ccc(NS(C)(=O)=O)c(F)c2)cc1 [Compound 1, 1-(4-t-butylbenzyl)-3-(3-fluoro-4-methanesulfonylaminobenzyl)thiourea]
